“And” between values parts separate entries of the source, which are not always exact repeats. Identical values can stand only once.
Key:
[1] = Relative chemical stability of cyclopropenes measured by 1H-NMR; type: physicochemical; conditions: 1H-NMR, CDCl3, stored at −20° C. or room temperature; relative to chain length 1
Description: A variety of analysis methods can be used to analyze the derivatives of Formula 6, since the absorbance of cyclopropenes containing an aryl group can be easily measured in the UV range. It can be confirmed that the chemical stability of the derivatives increases, when the length of chains to link an aryl ring to a cyclopropene ring is 2 or more. […] It is supposed that the stability of cyclopropenes increase due to the fact that π electrons of aryl groups affect π electrons of cyclopropenes.
The following Table 1 summarizes the relative chemical stability of cyclopropenes having a chain length of 2, 3, 4 or 5, based on the chemical stability of cyclopropenes having a chain length of 1. In the case of cyclopropene having a chain length of 1, the structure thereof can be confirmed via ^1H-NMR within one hour following synthesis (degraded to a level of 50% or more within one hour at 30° C.). In the case of cyclopropene having a chain length of zero, synthesis thereof was attempted in accordance with the present invention, but was impossible by a conventional method. Meanwhile, in the case of cyclopropenes having a chain length of 2 or more, the structure thereof can be precisely confirmed by ^1H-NMR as well as ^13C-NMR. The stability of these cyclopropenes was measured by ^1H-NMR while NMR cells (CDCl3) were stored at −20° C. or room temperature. In particular, cyclopropenes having chains of 3 or more were so stable that their half-life reached 5 days or longer at −20° C. or lower. In ^1H-NMR analysis, the stability was evaluated by comparing integral values at 4 to 6.5 ppm (1H) and 0.8 to 0.9 ppm (2H), characteristic peaks of 1-alkylcyclopropenes, using a small amount of 1,1,3,3-tetramethylurea (2.80 ppm) as an internal standard. Furthermore, the stability was also qualitatively evaluated by comparing integral value of the peak newly generated adjacent to the peak of the olefin proton of cyclopropene ring, as a 1-alkylcyclopropene compound is decomposed.

tomato = assay: Experimental Example 3: Efficacy test on tomato for other drugs (emulsion and oil-based formulation); type: in vivo; parameters: key: an area in which the surface of tomato was colored in pink was 10% or less; an area in which the surface of tomato was completely colored in red was 10 to 40%; 2: an area in which the surface of tomato was completely colored in red was 40 to 70%; 3: an area in which the surface of tomato was completely colored in red was 70% or more and the bottom area remained green; 4: an area in which the surface of tomato was most colored in red and only a part of (0 to 10%) the bottom area remained green; 5: the surface of tomato did not entirely color in green; conditions: individual tomatoes n=4
Method: At this time, the tops of tomatoes most early turned red, while the bottoms thereof most lately turned red. For this reason, in order to accurately evaluate the difference in reddening, the coloring evaluated was based on the area of red color, rather than the color of tomatoes. […] Accordingly, the grade level is proportional to the rate at which the tomatoes ripened.
1.0 mM emulsions and oil-based formulations of four agents, i.e., 1-(2-(4-methoxyphenyl)ethyl)cyclopropene, 1-(3-(4-methoxyphenyl)propyl)cyclopropene, 1-(3-phenoxypropyl)cyclopropene and 1-(4-phenoxybutyl)cyclopropene were prepared in accordance with Examples 1 and 2.
The tomatoes were screened in the same manner as in Experimental Example 1 and divided into 9 groups (n=4), i.e., a non-treated group and 4 emulsion-type agent groups and 4 oil-based formulation-type agent groups. Tomatoes were treated with the previously prepared agent using a household sprayer such that the surface thereof was saturated. The tomatoes were stood at room temperature (25-30° C.) for 3 days and a reddening level thereof was evaluated based on grades of 0 to 5.

[2] = 1.0 mM Emulsion, Day 0, room temperature (25-30° C.)
[3] = 1.0 mM Emulsion, Day 1, room temperature (25-30° C.)
[4] = 1.0 mM Emulsion, Day 2, room temperature (25-30° C.)
[5] = 1.0 mM Emulsion, Day 3, room temperature (25-30° C.)
[6] = 1.0 mM Oil-based formulation, Day 0, room temperature (25-30° C.)
[7] = 1.0 mM Oil-based formulation, Day 1, room temperature (25-30° C.)
[8] = 1.0 mM Oil-based formulation, Day 2, room temperature (25-30° C.)
[9] = 1.0 mM Oil-based formulation, Day 3, room temperature (25-30° C.)

| SMILES | Stability (relative chemical stability, based on cyclopropenes having a chain length of 1) [1] | reddening level (grade 0 to 5) (tomato; [2]) | reddening level (grade 0 to 5) (tomato; [3]) | reddening level (grade 0 to 5) (tomato; [4]) | reddening level (grade 0 to 5) (tomato; [5]) | reddening level (grade 0 to 5) (tomato; [6]) | reddening level (grade 0 to 5) (tomato; [7]) | reddening level (grade 0 to 5) (tomato; [8]) | reddening level (grade 0 to 5) (tomato; [9]) |
| --- | --- | --- | --- | --- | --- | --- | --- | --- | --- |
| COc1ccc(CCC2=CC2)cc1 [(2-(4-Methoxyphenyl)ethyl), 1-(2-(4-methoxyphenyl)ethyl)cyclopropene] | >10 | 0 (an area in which the surface of tomato was colored in pink was 10% or less) (2×) and 1 (an area in which the surface of tomato was completely colored in red was 10 to 40%) and 2 (an area in which the surface of tomato was completely colored in red was 40 to 70%) | 1 (an area in which the surface of tomato was completely colored in red was 10 to 40%) (2×) and 3 (an area in which the surface of tomato was completely colored in red was 70% or more and the bottom area remained green) (2×) | 3 (an area in which the surface of tomato was completely colored in red was 70% or more and the bottom area remained green) (2×) and 4 and 5 | 4 (2×) and 5 (2×) | 0 (an area in which the surface of tomato was colored in pink was 10% or less) (2×) and 1 (an area in which the surface of tomato was completely colored in red was 10 to 40%) and 2 (an area in which the surface of tomato was completely colored in red was 40 to 70%) | 1 (an area in which the surface of tomato was completely colored in red was 10 to 40%) (2×) and 2 (an area in which the surface of tomato was completely colored in red was 40 to 70%) and 3 (an area in which the surface of tomato was completely colored in red was 70% or more and the bottom area remained green) | 2 (an area in which the surface of tomato was completely colored in red was 40 to 70%) (2×) and 3 (an area in which the surface of tomato was completely colored in red was 70% or more and the bottom area remained green) and 4 | 3 (an area in which the surface of tomato was completely colored in red was 70% or more and the bottom area remained green) (2×) and 4 and 5 |
| C1=C(CCCCOc2ccccc2)C1 [(4-Phenoxybutyl), 1-(4-phenoxybutyl)cyclopropene] | >>10 | 0 (an area in which the surface of tomato was colored in pink was 10% or less) (2×) and 1 (an area in which the surface of tomato was completely colored in red was 10 to 40%) and 2 (an area in which the surface of tomato was completely colored in red was 40 to 70%) | 0 (an area in which the surface of tomato was colored in pink was 10% or less) (2×) and 2 (an area in which the surface of tomato was completely colored in red was 40 to 70%) (2×) | 1 (an area in which the surface of tomato was completely colored in red was 10 to 40%) (2×) and 3 (an area in which the surface of tomato was completely colored in red was 70% or more and the bottom area remained green) (2×) | 2 (an area in which the surface of tomato was completely colored in red was 40 to 70%) (2×) and 4 (2×) | 0 (an area in which the surface of tomato was colored in pink was 10% or less) (2×) and 1 (an area in which the surface of tomato was completely colored in red was 10 to 40%) and 2 (an area in which the surface of tomato was completely colored in red was 40 to 70%) | 0 (an area in which the surface of tomato was colored in pink was 10% or less) (2×) and 1 (an area in which the surface of tomato was completely colored in red was 10 to 40%) and 2 (an area in which the surface of tomato was completely colored in red was 40 to 70%) | 0 (an area in which the surface of tomato was colored in pink was 10% or less) and 1 (an area in which the surface of tomato was completely colored in red was 10 to 40%) and 2 (an area in which the surface of tomato was completely colored in red was 40 to 70%) (2×) | 1 (an area in which the surface of tomato was completely colored in red was 10 to 40%) (2×) and 3 (an area in which the surface of tomato was completely colored in red was 70% or more and the bottom area remained green) (2×) |
| C1=C(CCCOc2ccccc2)C1 [(3-Phenoxypropyl), 1-(3-phenoxypropyl)cyclopropene] | >>10 | 0 (an area in which the surface of tomato was colored in pink was 10% or less) (2×) and 1 (an area in which the surface of tomato was completely colored in red was 10 to 40%) and 2 (an area in which the surface of tomato was completely colored in red was 40 to 70%) | 0 (an area in which the surface of tomato was colored in pink was 10% or less) (2×) and 1 (an area in which the surface of tomato was completely colored in red was 10 to 40%) and 2 (an area in which the surface of tomato was completely colored in red was 40 to 70%) | 1 (an area in which the surface of tomato was completely colored in red was 10 to 40%) (2×) and 2 (an area in which the surface of tomato was completely colored in red was 40 to 70%) (2×) | 2 (an area in which the surface of tomato was completely colored in red was 40 to 70%) (2×) and 3 (an area in which the surface of tomato was completely colored in red was 70% or more and the bottom area remained green) (2×) | 0 (an area in which the surface of tomato was colored in pink was 10% or less) (2×) and 1 (an area in which the surface of tomato was completely colored in red was 10 to 40%) and 2 (an area in which the surface of tomato was completely colored in red was 40 to 70%) | 0 (an area in which the surface of tomato was colored in pink was 10% or less) (2×) and 1 (an area in which the surface of tomato was completely colored in red was 10 to 40%) and 2 (an area in which the surface of tomato was completely colored in red was 40 to 70%) | 0 (an area in which the surface of tomato was colored in pink was 10% or less) (2×) and 2 (an area in which the surface of tomato was completely colored in red was 40 to 70%) and 3 (an area in which the surface of tomato was completely colored in red was 70% or more and the bottom area remained green) | 1 (an area in which the surface of tomato was completely colored in red was 10 to 40%) (2×) and 2 (an area in which the surface of tomato was completely colored in red was 40 to 70%) and 3 (an area in which the surface of tomato was completely colored in red was 70% or more and the bottom area remained green) |

Source: US9072293B2, “Cyclopropenes and method for applying cyclopropenes to agricultural products or crops” (Erum Biotechnologies Inc., priority 2010, dated 2015)
